Reference: patent US11953435B2, “Zinc-responsive fluorophores” (Northwestern University, priority 2019, dated 2024)

What was measured:
[1] = Photophysical properties in solvents of varied dielectric constants (water/acetonitrile); assay type: physicochemical
Experimental: (§1) Aqueous solutions were prepared by using de-ionized water with resistivity […], obtained using a Milli-Q water purification system. In order to properly compare the photophysical properties of ZincBY-2, ZincBY-3, and ZincBY-4 to ZincBY-1, the photophysical properties of ZincBY-1 we remeasured. […] Stock solutions of ZincBY-1, ZincBY-2, ZincBY-3, and ZincBY-4 were prepared at concentrations of 5 mM and stored at −20° C. in aliquots that were used immediately after thawing for each experiment. Unless otherwise stated, all spectroscopic methods were conducted in aqueous buffer containing 50 mM HEPES (pH 7.2) and 0.1 M KNO3. UV-visible spectra were acquired on a PerkinElmer Lambda 650 UV/Vis spectrophotometer using quartz cuvettes from Starna (1 cm path length, 10 cm path length used in extinction coefficient and quantum yield determination). Fluorescence spectra were acquired using a PerkinElmer LS 55 fluorescence spectrophotometer. For measurements containing zinc, 99.0% ZnNO3 hexahydrate (final concentration 5 μM) was used. For experiments analyzing apo probes, N,N,N′,N′-Tetrakis(2-pyridylmethyl)ethylenediamine (TPEN) (final concentration 5 μM) was added to solution. Quantum Yield and Extinction Coefficient Determination. Quantum yields for apo and holo ZincBY-1, ZincBY-2, ZincBY-3, and ZincBY-4 were determined by plotting absorbance vs. fluorescence intensity of solutions containing ZincBY-1, ZincBY-2, ZincBY-3, or ZincBY-4 at probe concentrations ranging from 50-250 nM. […] Fluorescein dissolved in 0.1 N NaOH was used as the quantum yield standard, using a literature-determined quantum yield of 0.95.^3 For all fluorophore solutions, fluorescence excitation was set at 490 nm and fluorescence emission was integrated from 510 nm to 650 nm. […] Fluorescence spectra were recorded using zinc probes (ZincBY-1, ZincBY-2, ZincBY-3, or ZincBY-4; 200 nM) and ZnSO4 (various concentrations). […] Free Zn^2+ was calculated according to a previously reported method (Ref. B4; incorporated by reference in its entirety). […] The fluorescence spectra of zinc probes (ZincBY-2, ZincBY-3, or ZincBY-4; 200 nM) wasere measured at various pH values (4.5-11). […] The fluorescence spectra of zinc probes (ZincBY-2, ZincBY-3, or ZincBY-4; 200 nM) were measured in the presence an excess of metal ion including 1 mM KNO3, 1 mM NaNO3, 1 mM CaSO4, 1 mM MgSO4, 15 μM MnSO4, 15 μM (NH4)2Fe(SO4)2, 15 μM NH4Fe(SO4)2, 15 μM CoSO4, 15 μM NiSO4, 15 μM CuSO4, 15 μM [Cu(CH3CN)4]PF6, 15 μM CdSO4, 15 μM Hg(NO3)2, 15 μM Pb(NO3)2, or 15 μM ZnSO4. The fluorescence spectra were compared to that of ZincBY-2 (200 nM), ZincBY-3 (200 nM), or ZincBY-4 (200 nM) in the presence of 10 μM TPEN. […] A log P value for each probe was determined by agitating nanomolar solutions of each probe in a 1:1 mixture of HEPES buffer and 1-octanol. […]

[2] = Stability of ZincBY-4 over 12 h by fluorescence intensity; assay type: physicochemical; details: for retention of fluorescence intensity after 12 hours: 10 mM glutathione (GSH); for fluorescence intensity after 12 hours: absence of GSH
Experimental: as §1

CC(=O)NCCOc1ccc2n1[B-](F)(F)[N+]1=C(N(CCN(Cc3ccccn3)Cc3ccccn3)Cc3ccccn3)C=CC1=C2c1c(C)cc(C)cc1C [ZincBY-4, N-(2-((7-((2-(bis(pyridin-2-ylmethyl)amino)ethyl)(pyridin-2-ylmethyl)amino)-5,5-difluoro-10-mesityl-5H-5λ4,6λ4-dipyrrolo[1,2-c:2′,1′-f][1,3,2]diazaborinin-3-yl)oxy)ethyl)acetamide]
emission maximum wavelength as the dielectric constant decreases ([1]; apo): does not change | fluorescence intensity as the dielectric constant changes ([1]; apo): does change in response to dielectric constant | emission maximum wavelength as the dielectric constant decreases ([1]; holo): 575 nm | fluorescence intensity as the dielectric constant changes ([1]; holo): does not change as the dielectric constant changes | retention of fluorescence intensity after 12 hours ([2]; apo): 40% | fluorescence intensity after 12 hours ([2]; apo): 7% | retention of fluorescence intensity after 12 hours ([2]; holo): 97% | fluorescence intensity after 12 hours ([2]; holo): 83%
